Experimental data as given in patent US20030060485A1, “(+)-norcisapride” (priority 1997, published 2003).
Where two headings read alike, the source gives them in different places.

What was measured:
[1] = following oral administration; cited from earlier work
[2] = tested on: serotonin 5HT2-receptors (tryptamine challenge); experiment: Apomorphine, tryptamine, norepinephrine (ATN) test in rats: tryptamine challenge; assay type: in vivo; conditions: subcutaneous pretreatment
Source text: (§1) The absence of central dopamine antagonistic and serotonin antagonistic activity of the subject compounds is evidenced by the experimental data obtained in the combined apomorphine (APO), tryptamine (TRY) and norepinephrine (NOR) test in rats. Said combined apomorphine, tryptamine and norepinephrine test is described in Arch. Int. Pharmacodyn., 227, 238-253 (1977) and provides an empirical evaluation of the relative specificity with which drugs may effect particular neurotransmitter systems centrally (CNS) as well as peripherally. […] Central dopamine antagonism is evaluated by challenging rats, subcutaneously pretreated with different doses of the test compound, with apomorphine which is a dopamine agonist. Next, serotonin antagonism is evaluated by challenging the same rats, subcutaneously pretreated with different doses of the test compound, with tryptamine which is an agonist at serotonin 5HT2-receptors. Both central and peripheral serotonin antagonism can be assessed in this test. Centrally acting serotonin antagonists are potential antipsychotic drugs, in particular when simultaneously displaying dopamine antagonism in the first part of this test. Finally, α-adrenergic antagonistic activity of the test compounds is evaluated by challenging the same rats, subcutaneously pretreated with different doses of the test compound, with norepinephrine which is an a-adrenergic agonist. […]

[3] = tested on: MgSO4-induced intestinal lavage; experiment: MgSO4 induced intestinal lavage in dogs; assay type: in vivo, Beagle dogs; conditions: Canis lupus familiaris, p.o., 1 hour before magnesium sulphate challenge
Experimental: Beagle dogs (of both sexes and varying in body weight, 16 hours deprived from food) were orally pretreated with (+)-norcisapride or solvent and challenged 1 hour later with an oral administration of magnesium sulphate (MgSO4.7H2O, 64g/l, 0.26M; 200 ml). The onset of MgSO4-induced intestinal lavage was assessed over a period of 4 hours after challenge. Liquid stools within 4 hours occured almost never in control animals treated with distilled water (2.5% false positives; n=200) and were considered to reflect significant acceleration of the MgSO4-induced intestinal lavage. Doses in the active dose range were given to five animals each, tested in separate experimental sessions including solvent-treated control animals. All-or-none criteria, based on the distribution of the results obtained in a large number of solvent-treated animals, were used to calculate ED50-values (effective dose) and 95% confidence limits according to Finney's iterative method (Finney, 1962).

[4] = tested on: α-adrenergic (norepinephrine challenge); experiment: Apomorphine, tryptamine, norepinephrine (ATN) test in rats: norepinephrine challenge; assay type: in vivo; conditions: Rattus norvegicus, subcutaneous pretreatment
Source text: as §1

5-HT3 receptor = biological target: T1, 5-HT3 receptor (Cavia porcellus, UniProt O70212); experiment: 5-hydroxykynuramine antagonism on the guinea-pig ileum; assay type: cell-based, Guinea pigs; conditions: guinea-pig ileum segments; 5-OH-K 3.10^-6 M; read-out: IC50 reducing the 5-OH-K induced effect by 50%
T1 construct: from tissue; host or cells: guinea-pig ileum segments in organ bath
T1 sequence (O70212 24-490 limits assumed): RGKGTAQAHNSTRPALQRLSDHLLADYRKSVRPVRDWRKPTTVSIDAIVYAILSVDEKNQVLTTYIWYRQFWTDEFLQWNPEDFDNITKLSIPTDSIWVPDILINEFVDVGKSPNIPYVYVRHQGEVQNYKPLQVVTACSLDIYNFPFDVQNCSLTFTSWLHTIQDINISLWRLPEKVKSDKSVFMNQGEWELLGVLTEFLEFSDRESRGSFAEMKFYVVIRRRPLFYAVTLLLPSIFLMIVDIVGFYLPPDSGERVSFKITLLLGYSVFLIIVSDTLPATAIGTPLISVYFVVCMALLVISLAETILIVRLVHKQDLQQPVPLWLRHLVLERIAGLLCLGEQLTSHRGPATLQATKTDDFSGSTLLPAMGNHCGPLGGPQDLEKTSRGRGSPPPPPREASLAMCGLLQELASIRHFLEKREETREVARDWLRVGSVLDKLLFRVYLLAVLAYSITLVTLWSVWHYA
Experimental: Since 5-OH—K (5-hydroxykynuramine) is a specific agonist at the 5-HT3 receptor, this test evaluates the potential 5-HT3 antagonistic effects.
Guinea pigs of both sexes, body weight±450 g, were killed by decapitation. Non-terminal, (distal 10 cm discarded), intact ileum segments, strips were cleansed, 4.5 cm long, were vertically suspended with a preload of 0.75 g in an 100 ml bath for isotonic recording; [(Displacement Transducer Control Unit; Janssen Scientific Instrument Division), HP7 DGDT-1000 (Hewlett-Packard CY)]. The organ bath was filled with a Tyrode solution, (37.5° C.), gassed with a mixture of 95% O2 and 5% CO2. After a stabilisation period of 20 minutes, methacholine (3.10^−6 M, 30 seconds contacttime) was added to the bathfluid in order to evaluate the potential maximal contraction, whereafter the bathfluid was refreshed, Subsequently, the serotonin agonist 5-OH-K (30 seconds contact time) was added (final concentration 3.10^−6 M) at intervals of 10 minutes, the bath fluid being refreshed 30 seconds after each addition. After reaching reproducible contractile effects, a single dose of the test compound was added to the bath fluid followed 5 minutes later by addition of 5-OH—K. After establishing the log concentration-responds curve of the test compound, IC50 values reducing the 5-OH—K induced effect by 50% were calculated by linear regression analysis.

[5] = tested on: guinea-pig colon ascendens; experiment: Guinea-pig colon coaxial stimulation; assay type: cell-based, Guinea-pigs; conditions: Cavia porcellus; guinea-pig colon ascendens segments; read-out: EC50 (concentration that stimulates the maximal tone effect by 50%)
Experimental: Guinea-pigs of both sexes (body weight±450 g), were killed by decapitation. The colon ascendens was removed and rinsed, whereafter segments of approximately 3 cm length were prepared. These strips were suspended in an organ bath (100 ml) and connected to an isotonic transducer under a preload of 2 g; [Displacement Transducer Control Unit (Janssen Scientific Instrument Division); HP 7 DGDT 1000 (Hewlett-Packard)]. The organ bath was filled with a DeJalon solution (37.5° C.), gassed with a mixture of 95% O2 and 5% CO2. After a stabilization period of 20 minutes, methacholine 3.10^−6 M was added to the bathfluid in order to evaluate the potential maximal effect of the strip (contact time 30 seconds); thereafter, the bathfluid was refreshed. This was repeated at intervals of 10 minutes until a reproducible answer was obtained after addition of methacholine. Thereafter, the test compound was added for 10 minutes. Afterwards, without refreshing the bathfluid, cisapride 3.10^−7 M was added to evaluate a possible 5HT4 effect. When the contraction, caused by cisapride obtained a stable maximal level, methacholine 3.10^−6 M to evaluate a potential anti-cholinergic effect, was added to the bath fluid until a maximal contraction was obtained. The EC50 (i.e. the concentration that stimulates the maximal tone effect by 50%) of a compound, was calculated using linear regression analysis.

[6] = tested on: guinea-pig ileum longitudinal muscle layer with myenteric plexus; experiment: Guinea-pig ileum coaxial stimulation; assay type: cell-based, Dunkin-Hartley guinea-pigs; conditions: Cavia porcellus; guinea-pig ileum strips, electrical stimulation 0.1 Hz, 1 ms, submaximal; read-out: EC50 (concentration that stimulates the response to electrical stimulation by 50%)
Source text: Dunkin-Hartley guinea-pigs of either sex (weighing between 600-900 g) were killed by decapitation. The ileum was removed and cleansed with warmed and oxygenated Krebs-Henseleit solution. Parts of the ileum (15 cm) were slipped over a glass pipette. The longitudinal muscle layer with myenteric plexus was removed by means of a cotton thread moistened with Krebs solution. Strips with a length of 8 cm were folded and these strips (4 cm) were mounted between two platinum electrodes (8 cm length, 0.5 cm apart). The strips were suspended with a preload of 1.5 g in 100 ml Krebs-Henseleit solution (37.5° C.), gassed with a mixture of 95% O2 and 5% CO2. The preparations were excited with single rectangular stimuli [1 ms; 0.1 Hz; submaximal response (current leading to 80% of maximal response), from a programmable stimulator (Janssen Scientific Instruments Division)]. Contractions were measured isometrically (Statham UC2, Janssen Scientific Instruments amplifier, Kipp BD-9 pen-recorder). During the stabilization period of 30 minutes, the strips were repeatedly stretched, in order to obtain a steady state tension of 1.5 g. Before starting the electrical stimulation, a cumulative concentration response curve of acetylcholine (3.10^−9, 10^−8, 3.10^−8 and 10^−7 M) was given. The bath fluid was replaced with fresh Krebs solution and the strips were allowed to stabilize for another 30 minutes. […]

[7] = tested on: central dopamine antagonism (apomorphine challenge); experiment: Apomorphine, tryptamine, norepinephrine (ATN) test in rats: apomorphine challenge; assay type: in vivo; conditions: Rattus norvegicus, subcutaneous pretreatment, central dopamine antagonistic activity
Source text: as §1

Row | IC50 (5-HT3 receptor) | EC50 [5] | EC50 [6] | Compound | unchanged cisapride as share of urinary and fecal recovery [1] | ED50 TRY convulsions ([2]; central serotonin antagonistic activity) | ED50 TRY hyperaemia ([2]; peripheral serotonin antagonistic activity) | ED50 ([3]; liquid stools within 1 hour after challenge, read-out: ED50, onset of diarrhoea with 1 hour) | ED50 ([3]; liquid stools within 2 hours after challenge, read-out: ED50, onset of diarrhoea with 2 hours) | ED50 ([3]; liquid stools within 3 hours after challenge, read-out: ED50, onset of diarrhoea with 3 hours) | ED50 ([3]; liquid stools within 4 hours after challenge, read-out: ED50, onset of diarrhoea with 4 hours) | ED50 [4] | ED50 [7]
1 |  |  |  | COc1cc(N)c(Cl)cc1C(=O)NC1CCN(CCCOc2ccc(F)cc2)CC1OC (stereo not drawn) [cisapride] | less than 10% |  |  |  |  |  |  |  | 
2 | 93 nM | 1900 nM | 600 nM | COc1cc(N)c(Cl)cc1C(=O)N[C@@H]1CCNC[C@@H]1OC (stereo in doubt) [Compound 1, (+)-cis-4-amino-5-chloro-2-methoxy-N-(3-methoxy-4-piperidinyl)benzamide] |  | >40 mg/kg | 4.7 mg/kg | 0.15 mg/kg | 0.064 mg/kg | 0.049 mg/kg | 0.032 mg/kg | > 40 mg/kg | > 40 mg/kg
3 | 450 nM | 11000 nM | 5000 nM | COc1cc(N)c(Cl)cc1C(=O)N[C@H]1CCNC[C@H]1OC (stereo in doubt) [Compound 2, (−)-cis-4-amino-5-chloro-2-methoxy-N-(3-methoxy-4-piperidinyl)benzamide] |  |  |  |  |  |  |  |  | 
